{
  "source": "patent US10118891B2",
  "about": "“Organosulfur compounds for the prevention and treatment of neurodegenerative diseases” (Allium Vitalis, Inc., priority 2011, dated 2018)",
  "key": {"[1]": {"tested_on": "Ehrilich ascites tumor cells", "conditions": "intracellular concentrations up to 0.6 mM; cited from earlier work"}, "[2]": {"assay": "experimental self-consumption by the applicant, tolerability", "format": "in vivo, human", "conditions": "240 mg/day for several weeks"}, "[3]": {"conditions": "cited from earlier work"}, "[4]": {"tested_on": "protein carbonyls in synaptosomal membranes", "conditions": "cited from earlier work"}, "ischemia": {"tested_on": "ischemia", "conditions": "ischemia with elevation of HNE; cited from earlier work"}, "[5]": {"tested_on": "glutathione content of cells", "conditions": "daily dosage of 1000 mg, multiple myeloma patients, with arsenic trioxide; cited from earlier work"}, "[6]": {"assay": "partition coefficient (Log P), oil and water system", "format": "physicochemical", "conditions": "worked out from Log P", "text": "Lipophilic molecule: Attracted to lipids. A molecule is lipophilic if it preferentially partitions into the oily side of an oil and water system."}, "[7]": {"conditions": "oil and water system; cited from earlier work"}},
  "data": [
    {"compound": "CC(O)C=CC=O", "note": "(stereo not drawn) [HPE]", "values": [
      {"measurement": "effect on protein sulfhydryls or enzyme activities", "setting": "[1]", "result": "no effect"},
      {"measurement": "low molecular weight thiols", "setting": "[1]", "result": "depleted"}
    ]},
    {"compound": "C=CCS", "note": "[allyl mercaptan, AllylThiol]", "values": [
      {"measurement": "negative effects on consumption", "setting": "[2]", "result": "without any apparent negative effects"},
      {"measurement": "standard comprehensive blood test at the end of the experiment", "setting": "[2]", "result": "essentially normal"},
      {"measurement": "solubility in water", "setting": "[3]", "result": 5, "unit": "mg/mL"}
    ]},
    {"compound": "Acrolein", "values": [
      {"measurement": "protein carbonyls, \"C+Acrolein\" bar", "setting": "[4]; synaptosomal membranes, acrolein without GEE pretreatment", "result": "552 % of \"Control\""}
    ]},
    {"compound": "CCOC(=O)CNC(=O)[C@H](CS)NC(=O)CC[C@H](N)C(=O)O", "note": "[GEE, Glutathione Ethyl Ester]", "values": [
      {"measurement": "protein carbonyls, % of Control", "setting": "[4]; GEE alone, no acrolein", "result": 85, "unit": "%"},
      {"measurement": "protein carbonyls, \"GEE+Acrolein\" bar", "setting": "[4]; synaptosomal membranes pretreated with GEE (3 hours), then acrolein", "result": "163 % of \"Control\""}
    ]},
    {"compound": "CC1=NN(c2ccccc2)C(=O)C1", "note": "[edaravone]", "values": [
      {"measurement": "effect of treatment in ischemia", "setting": "ischemia", "result": "protective effect"}
    ]},
    {"compound": "O=C1O[C@H]([C@@H](O)CO)C(O)=C1O", "note": "[vitamin C]", "values": [
      {"measurement": "glutathione depletion, mean percentage decrease", "setting": "[5]", "result": 60, "unit": "%"}
    ]},
    {"compound": "CCCS", "note": "[propyl mercaptan, 1-PropaneThiol]", "values": [
      {"measurement": "ratio of concentration on the oily side to the aqueous side", "setting": "[6]", "result": "~100"},
      {"measurement": "partition coefficient (Log P)", "setting": "[7]", "result": 1.95}
    ]}
  ]
}
